Values quoted from earlier work as cited in patent US7309799B2 (Collegium Pharmaceutical, Inc., priority 2004, dated 2007).

Columns and labels:
[1] = test system: SNL-induced hypersensitivity; settings: rats; for reversal of mechanical hypersensitivity: SNL
[2] = target: reuptake of serotonin (Homo sapiens, UniProt P31645); settings: compared with noradrenaline reuptake
[3] = test system: neurotransmitter receptor
[4] = test system: gastric mucosa; settings: preclinical studies

Sequence of reuptake of serotonin (P31645 whole entry): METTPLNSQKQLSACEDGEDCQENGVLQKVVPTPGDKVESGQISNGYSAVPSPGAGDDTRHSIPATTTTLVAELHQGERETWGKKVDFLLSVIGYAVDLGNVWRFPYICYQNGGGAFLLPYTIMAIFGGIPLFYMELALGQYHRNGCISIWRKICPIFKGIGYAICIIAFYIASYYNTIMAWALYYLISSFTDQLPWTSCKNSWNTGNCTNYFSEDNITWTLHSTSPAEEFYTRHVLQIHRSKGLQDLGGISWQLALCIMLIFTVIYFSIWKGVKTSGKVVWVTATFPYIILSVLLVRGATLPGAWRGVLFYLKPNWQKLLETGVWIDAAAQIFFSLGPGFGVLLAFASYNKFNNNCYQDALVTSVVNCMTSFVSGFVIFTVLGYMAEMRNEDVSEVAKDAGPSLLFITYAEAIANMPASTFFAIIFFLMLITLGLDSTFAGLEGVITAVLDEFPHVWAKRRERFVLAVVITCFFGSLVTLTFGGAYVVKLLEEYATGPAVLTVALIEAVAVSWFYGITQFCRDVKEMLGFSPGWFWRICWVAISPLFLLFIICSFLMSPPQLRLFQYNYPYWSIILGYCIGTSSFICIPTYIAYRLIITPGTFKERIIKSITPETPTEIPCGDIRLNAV

Structure (SMILES)	reversal of SNL-induced thermal hypersensitivity [1]	reversal of mechanical hypersensitivity [1]	potency of inhibition of the reuptake of serotonin [2]	effectiveness in reversing SNL induced thermal hypersensitivity compared with duloxetine [1]	affinity for any neurotransmitter receptor studied [3]	general and cardiovascular tolerability versus TCAs (database of over 3300 patients)	incidence of dysuria versus SSRIs (human, in vivo)	tolerability versus SSRIs (human, in vivo)	nausea and vomiting (dose-limiting gastrointestinal disturbances) (oral administration)	effect on gastric mucosa [4]
CNCC[C@H](Oc1cccc2ccccc12)c1cccs1 [duloxetine]	both reversed	Neither milnacipran nor duloxetine reversed								
CCN(CC)C(=O)[C@@]1(c2ccccc2)C[C@H]1CN.Cl (racemic) [milnacipran, racemic cis-2-(aminomethyl)-N,N-diethyl-1-phenyl-cyclopropanecarboxamide]	both reversed	Neither milnacipran nor duloxetine reversed	essentially equal potency	more effective	no detectable affinity	superior to those of the tricyclic antidepressants (TCAs)	higher incidence of dysuria	comparable to that of the SSRIs	increasing frequency after doses of 100 mg or above	direct irritant effect
